Test results as given in PMC9894594, “Progressive Acceleration of Insulin Exposure Over 7 Days of Infusion Set Wear” (Diabetes Technology & Therapeutics, 2023).

Key:
Format in all cases: in vivo, human (participants with type 1 diabetes mellitus)
[1] = Adverse events during the crossover clamp study; settings: both IIS types
Source text: (§1) We performed a prospectively enrolled randomized sequence two-way crossover study of the investigational CBX (Capillary Biomedical, Inc., Irvine, CA) and a commercial angled Teflon (MiniMed™ Silhouette™; Medtronic Diabetes Care, Northridge, CA; indicated for 3-day use) IIS for two weeklong home use periods with four in-patient euglycemic clamp sessions during each of the 7-day periods. Between the two periods, there was a wash out of 14 days (Supplementary Fig. S1).
WCG IRB approved the protocol and all associated documents used by participants before initiation of the study (Study No. 1283383) and during the study were registered in clinicaltrials.gov (NCT04398030). Participants aged 18–70 years, diagnosed with type 1 diabetes mellitus, and using rapid-acting insulin analog delivered through a Medtronic MiniMed insulin pump (model 530 or higher; Medtronic Diabetes Care) for at least 6 months were enrolled.

[2] = Euglycemic clamp pharmacodynamics (glucose infusion rate) after insulin lispro pump bolus; set-up: t50% (GIR, early) (time to reach 50% GIRmax before peak) / t50% (GIR, late) (time to reach 50% GIRmax after peak): unit: min; settings: 0.15 U/kg SC bolus by pump, euglycemic clamp 300 min, median (25th–75th)
Source text: as §1
(§2) Euglycemic clamp experiments were performed at AMCR Institute (in Escondido, CA.) on days 0, 3, 5, and 7 in each treatment period (eight clamps per participant). Participants were admitted to AMCR the evening before the clamp study and glucose was stabilized overnight with intravenous (IV) insulin or glucose as needed. Personal pumps were set to 0.1 U/h overnight and throughout the clamp experiment. Once glucose was stable (95 ± 15 mg/dL) in the morning, IV insulin was stopped 20 min before administering a bolus of 0.15 U/kg of insulin lispro (Eli Lilly, Indianapolis, IN) by pump. Glucose was clamped at 95 ± 15 mg/dL for 300 min or terminated early if runaway hyperglycemia occurred.
(§3) PK parameters (area under the insulin concentration curve [AUC] over the first 60 or 300 min, respectively; time to maximum insulin concentration [tmax]; maximum insulin concentration [Cmax]; time to half-maximum insulin concentration, early and late [t50%], and mean residence time [MRT]) were tested for treatment effects. […] Estimated means were then back transformed and the ratio between treatments/days (equality means a ratio of 1) tested for significance using mixed model for repeated measures (two-sided, α = 0.05). For simplicity reasons, all data are presented as median (25th–75th percentiles) or mean ± standard deviation.

[3] = Insulin lispro pharmacokinetics after pump bolus during euglycemic clamp over 7 days of infusion set wear; settings: CBX group
Source text: as §1, §2
Per participant and clamp, 30 plasma samples were collected in regular intervals and stored at −70°C. Samples were analyzed elsewhere (Northern Lights Mercodia Lispro ELISA, Mercodia AB, Uppsala, Sweden; lowest limit of quantification (LLOQ) = 1.0 mU/L, 94% accuracy[7]). Owing to the small sample size and the intrinsically greater variability in pharmacodynamic measures, the PK results are the only results detailed in this report.
as §3

[4] = day 0 of IIS wear, CBX IIS, n = 6
[5] = day 0 of IIS wear, Control IIS, n = 6
[6] = day 3 of IIS wear, CBX IIS, n = 6
[7] = day 3 of IIS wear, Control IIS, n = 6
[8] = day 5 of IIS wear, CBX IIS, n = 6
[9] = day 5 of IIS wear, Control IIS, n = 6
[10] = day 7 of IIS wear, CBX IIS, n = 5
[11] = day 7 of IIS wear, Control IIS, n = 5

Substance: insulin lispro
- severe or serious adverse events [1]: No severe or serious adverse events
- AUC0–300(GIR) (area under the GIR curve from 0 to 300 min) [2, 4]: 1205 (642.1–1219) mg/kg
- GIRmax (maximum glucose infusion rate) [2, 4]: 8.4 (4.5–9.1) mg/(kg·min)
- Onset of action [2, 4]: 28.9 (21.4–39.0) min
- t50% (GIR, early) (time to reach 50% GIRmax before peak) [2, 4]: 48.7 (25.7–63.5)
- t50% (GIR, late) (time to reach 50% GIRmax after peak) [2, 4]: 187.4 (160.4–234.3)
- tmax(GIR) (time to reach GIRmax) [2, 4]: 140.0 (80.0–170.0) min
- AUC0–300(GIR) (area under the GIR curve from 0 to 300 min) [2, 5]: 1330 (790.6–1539) mg/kg
- GIRmax (maximum glucose infusion rate) [2, 5]: 10.2 (7.7–11.7) mg/(kg·min)
- Onset of action [2, 5]: 76.1 (56.6–106.4) min
- t50% (GIR, early) (time to reach 50% GIRmax before peak) [2, 5]: 67.6 (43.0–93.5)
- t50% (GIR, late) (time to reach 50% GIRmax after peak) [2, 5]: 182.6 (164.3–247.3)
- tmax(GIR) (time to reach GIRmax) [2, 5]: 145.0 (90.0–190.0) min
- AUC0–300(GIR) (area under the GIR curve from 0 to 300 min) [2, 6]: 719.6 (652.3–864.3) mg/kg
- GIRmax (maximum glucose infusion rate) [2, 6]: 7.41 (5.7–9.5) mg/(kg·min)
- Onset of action [2, 6]: 28.2 (12.1–34.0) min
- t50% (GIR, early) (time to reach 50% GIRmax before peak) [2, 6]: 49.0 (37.7–95.0)
- t50% (GIR, late) (time to reach 50% GIRmax after peak) [2, 6]: 157.6 (97.5–179.0)
- tmax(GIR) (time to reach GIRmax) [2, 6]: 65.00 (60.0–120.0) min
- AUC0–300(GIR) (area under the GIR curve from 0 to 300 min) [2, 7]: 743.1 (585.5–1268) mg/kg
- GIRmax (maximum glucose infusion rate) [2, 7]: 5.2 (5.0–13.5) mg/(kg·min)
- Onset of action [2, 7]: 35.4 (29.0–41.4) min
- t50% (GIR, early) (time to reach 50% GIRmax before peak) [2, 7]: 51.3 (44.9–55.6)
- t50% (GIR, late) (time to reach 50% GIRmax after peak) [2, 7]: 147.8 (88.3–177.7)
- tmax(GIR) (time to reach GIRmax) [2, 7]: 82.0 (60.0–110.0) min
- AUC0–300(GIR) (area under the GIR curve from 0 to 300 min) [2, 8]: 663.5 (609.8–1332) mg/kg
- GIRmax (maximum glucose infusion rate) [2, 8]: 8.1 (6.5–10.9) mg/(kg·min)
- Onset of action [2, 8]: 21.1 (18.4–23.8) min
- t50% (GIR, early) (time to reach 50% GIRmax before peak) [2, 8]: 33.3 (28.7–37.0)
- t50% (GIR, late) (time to reach 50% GIRmax after peak) [2, 8]: 92.6 (77.1–147.0)
- tmax(GIR) (time to reach GIRmax) [2, 8]: 62.5 (50.0–70.0) min
- AUC0–300(GIR) (area under the GIR curve from 0 to 300 min) [2, 9]: 695.2 (585.4–1395) mg/kg
- GIRmax (maximum glucose infusion rate) [2, 9]: 9.1 (7.3–10.8) mg/(kg·min)
- Onset of action [2, 9]: 20.0 (16.4–23.0) min
- t50% (GIR, early) (time to reach 50% GIRmax before peak) [2, 9]: 38.8 (30.6–39.1)
- t50% (GIR, late) (time to reach 50% GIRmax after peak) [2, 9]: 106.8 (95.4–140.2)
- tmax(GIR) (time to reach GIRmax) [2, 9]: 59.0 (55.0–60.0) min
- AUC0–300(GIR) (area under the GIR curve from 0 to 300 min) [2, 10]: 883.0 (380.6–908.4) mg/kg
- GIRmax (maximum glucose infusion rate) [2, 10]: 10.1 (4.9–11.3) mg/(kg·min)
- Onset of action [2, 10]: 18.8 (16.2–27.0) min
- t50% (GIR, early) (time to reach 50% GIRmax before peak) [2, 10]: 32.2 (28.0–36.0)
- t50% (GIR, late) (time to reach 50% GIRmax after peak) [2, 10]: 107.5 (105.9–117.8)
- tmax(GIR) (time to reach GIRmax) [2, 10]: 55.0 (50.0–55.0) min
- AUC0–300(GIR) (area under the GIR curve from 0 to 300 min) [2, 11]: 687.7 (386.7–1039) mg/kg
- GIRmax (maximum glucose infusion rate) [2, 11]: 9.2 (6.9–11.5) mg/(kg·min)
- Onset of action [2, 11]: 27.5 (14.6–32.0) min
- t50% (GIR, early) (time to reach 50% GIRmax before peak) [2, 11]: 48.1 (23.2–48.1)
- t50% (GIR, late) (time to reach 50% GIRmax after peak) [2, 11]: 96.7 (87.1–109.5)
- tmax(GIR) (time to reach GIRmax) [2, 11]: 70.0 (60.0–70.0) min
- acceleration of median tmax by day 7 vs day 0 [3]: 61%
- decrease of median MRT from day 0 to day 7 [3]: 42%
- increase of median early exposure (AUC0–60) by day 7 vs day 0 [3]: 59%
